Laboratory results as given in patent US20250099420A1, “SMALL MOLECULE MODULATORS OF GPR139 COMPLEX” (University of Florida Research Foundation, Incorporated, priority 2022, published 2025).
Where two headings read alike, the source gives them in different places.

How the values were obtained:
parental HEK cells = test: HEK parental Agonist Counterscreen Assay (non-transfected cells); type: cell-based; settings: for Averaged Max % Response (±St. Dev.): activity relative to known control
From the text: The high control for the agonist counterscreen was Forskolin not acetylcholine.

GPR139 = molecular target: T1, GPR139 (Homo sapiens, UniProt Q6DWJ6); test: GPR139 Agonist titration / agonist counterscreen assay (calcium detection, HEK-GPR139 cells); type: cell-based; parameters: expressed in transfected cells; host or cells: HEK Aequorin cells, Maxcyte transient transfection; settings: GPR139 Agonist Activity; for EC50: read-out: EC50; for Averaged Max % Response (±St. Dev.): activity relative to known control
T1 sequence (Q6DWJ6 1-353): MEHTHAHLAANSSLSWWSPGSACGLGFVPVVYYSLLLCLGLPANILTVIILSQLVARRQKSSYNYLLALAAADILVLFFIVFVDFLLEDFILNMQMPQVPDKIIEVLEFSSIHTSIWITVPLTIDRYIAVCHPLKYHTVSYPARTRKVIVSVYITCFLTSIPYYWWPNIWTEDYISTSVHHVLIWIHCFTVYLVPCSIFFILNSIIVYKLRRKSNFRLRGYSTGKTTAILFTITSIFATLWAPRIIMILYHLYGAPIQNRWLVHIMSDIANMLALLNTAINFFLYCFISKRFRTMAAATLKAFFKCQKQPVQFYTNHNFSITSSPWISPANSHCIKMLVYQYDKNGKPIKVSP
Protocol: GPR activity was assessed using a calcium detection assay. […] Negative control samples were treated with DMSO. […] Intracellular calcium was measured using Calcium 5.

[1] = Homo sapiens, HEK293, HEK Agonist Activity section of Table 4 (parental HEK counterscreen)
[2] = values printed in E-notation without unit
[3] = HEK Agonist Activity section of Table 4 (parental HEK counterscreen)
[4] = Homo sapiens, HEK293, HEK Agonist Activity, parental non-transfected HEK cells

Row | SMILES | Lipophilic Efficiency (logD) (parental HEK cells; HEK Agonist Activity section) | Lipophilic Efficiency (logP) (parental HEK cells; HEK Agonist Activity section) | Averaged Max % Response (±St. Dev.) (parental HEK cells; HEK Agonist Activity section) [%] | EC50 (parental HEK cells; [1]) [nM] | Efficiency Ligand (GPR139) | Hill Slope (GPR139) | Lipophilic Efficiency (logD) (GPR139) | Lipophilic Efficiency (logP) (GPR139) | EC50 (GPR139; HEK-GPR139 cells) [nM] | Averaged Max % Response (±St. Dev.) (GPR139) [%] | Lipophilic Efficiency (logD) (GPR139; based on logD) | Lipophilic Efficiency (logP) (GPR139; based on logP) | Hill Slope (GPR139; fitted dose-response curve) | Efficiency Ligand (GPR139; ligand efficiency) | EC50 (GPR139; [2]) [nM] | EC50 (parental HEK cells; [3]) [nM] | Lipophilic Efficiency (logD) (parental HEK cells; HEK Agonist Activity) | Lipophilic Efficiency (logP) (parental HEK cells; HEK Agonist Activity) | Averaged Max % Response (±St. Dev.) (parental HEK cells; HEK Agonist Activity) [%] | EC50 (parental HEK cells; [4]) [nM]
1 | CC(C)C(=O)NNC(=O)C(C)Oc1ccc(Cl)cc1Cl (stereo not drawn) [SR-01000361172] | 1.97 | 1.93 | 2.50 ± 11.74 | > 14100 | 0.40 | 1.48 | 2.81 | 2.78 | 2000 | 91.50 ± 11.81 | – | – | – | – | – | – | – | – | – | –
2 | COc1ccc(CC(=O)NNC(=O)C(C)Oc2ccc(Cl)cc2Cl)cc1 (stereo not drawn) [SR-01000361779] | 1.53 | 1.50 | 9.57 ± 4.06 | > 14100 | – | – | – | – | – | 89.14 ± 2.93 | 3.38 | 3.35 | 0.85 | 0.36 | 197 | – | – | – | – | –
3 | O=C(COc1ccc2ccccc2c1)NNC(=O)c1cccc([N+](=O)[O-])c1 [SR-01000362228] | 2.17 | 2.17 | −0.15 ± 6.76 | – | 0.30 | 1.38 | 3.11 | 3.10 | 1600 | 84.08 ± 9.93 | – | – | – | – | – | > 14100 | – | – | – | –
4 | Cc1ccc(S(=O)(=O)NC(=O)NC(C)Cc2ccccc2)cc1 (stereo not drawn) [SR-01000362293] | – | – | – | – | – | – | – | – | – | 100.19 ± 16.30 | 5.01 | 4.07 | 1.02 | 0.46 | 33.5 | – | 2.39 | 1.45 | −7.08 ± 3.92 | > 14100
5 | COc1cccc(COC(=O)NC(C)C2COc3ccccc3O2)c1 (stereo not drawn) [SR-01000362527] | 1.68 | 1.68 | 12.25 ± 2.76 | > 14100 | 0.34 | 0.88 | 2.98 | 2.98 | 701 | 96.08 ± 11.27 | – | – | – | – | – | – | – | – | – | –
6 | C#CC1=C(CCCc2ccc(CC)cc2)CC(CCc2ccccc2CC)=C1 [SR-01000363853] | 1.79 | 1.79 | −6.20 ± 7.21 | > 14100 | 0.29 | 0.77 | 2.73 | 2.73 | – | 87.50 ± 15.37 | – | – | – | – | – | – | – | – | – | –
7 | Cc1ccc(CNc2nc3ccccc3n2CCN2CCOCC2)cc1 [SR-01000364205] | 1.29 | 1.08 | −1.19 ± 1.27 | > 14100 | 0.33 | 1.55 | 2.50 | 2.29 | – | 94.68 ± 16.83 | – | – | – | – | – | – | – | – | – | –
8 | COc1cccc(C(=O)NNC(=O)COc2ccc(C)cc2Br)c1 [SR-01000369718] | – | – | – | – | – | – | – | – | – | 111.46 ± 12.99 | 5.36 | 5.36 | 0.33 | 0.48 | 5.9 | – | 1.98 | 1.98 | 7.35 ± 13.00 | > 14100
9 | CC(Oc1ccc(Cl)cc1Cl)C(=O)NNC(=O)COc1ccccc1 (stereo not drawn) [SR-01000370374] | 1.71 | 1.66 | 4.76 ± 6.67 | > 14100 | – | – | – | – | – | 100.37 ± 4.50 | 3.80 | 3.75 | 0.87 | 0.39 | 114 | – | – | – | – | –
10 | CC(C(=O)NCCn1nnn(-c2ccccc2)c1=O)n1nc2ccccc2n1 (stereo not drawn) [SR-01000373848] | 1.47 | 1.47 | 7.32 ± 0.96 | – | 0.32 | 0.90 | 3.07 | 3.07 | 354 | 97.42 ± 13.41 | – | – | – | – | – | > 14100 | – | – | – | –
11 | CCSc1nc2sccn2c(=O)c1C(=O)NC(C)c1ccccc1 (stereo not drawn) [SR-01000378352] | 1.53 | 1.53 | 8.83 ± 9.35 | > 14100 | 0.36 | 1.14 | 2.89 | 2.89 | 616 | 93.30 ± 10.83 | – | – | – | – | – | – | – | – | – | –
12 | CS(=O)(=O)c1cccc(C(=O)NCCCN2CCc3ccccc32)c1 [SR-01000387617] | 2.95 | 2.95 | 2.04 ± 4.49 | > 14100 | 0.35 | 0.75 | 4.28 | 4.28 | 661 | 81.90 ± 12.88 | – | – | – | – | – | – | – | – | – | –
13 | O=C(O)c1ccccc1C(=O)c1cccc2ccccc12 [SR-01000391835] | 4.05 | 0.66 | 10.10 ± 5.45 | > 18300 | – | – | – | – | – | 104.57 ± 1.81 | 5.91 | 2.52 | 0.80 | 0.44 | 254 | – | – | – | – | –
14 | CCc1c(C2C(C(=O)OCc3ccccc3)=C(C)CC3=C2C(=O)CCC3)ccc(OC)c1OC (stereo not drawn) [SR-01000406098] | 1.55 | 1.55 | 7.56 ± 6.15 | > 11500 | 0.24 | 1.97 | 2.46 | 2.46 | – | 80.99 ± 4.70 | – | – | – | – | – | – | – | – | – | –
15 | Cc1ccccc1C(=O)NNC(=O)C(C)Oc1ccc(Cl)cc1Cl (stereo not drawn) [SR-01000410694] | 0.98 | 0.95 | 10.08 ± 3.68 | > 10200 | – | – | – | – | – | 91.99 ± 13.68 | 2.98 | 2.96 | 1.03 | 0.41 | 100 | – | – | – | – | –
16 | Cc1cccc(C(=O)NNC(=O)C(C)Oc2ccc(O)cc2O)c1 (stereo not drawn) [SR-01000410744] | – | – | – | – | – | – | – | – | – | 114.68 ± 11.76 | 5.27 | 5.24 | – | 0.54 | < 0.517 | – | 0.98 | 0.95 | 17.10 ± 14.93 | > 10200
17 | COc1ccc(CCNC(=O)COc2ccc(Cl)cc2Cl)cc1 [SR-01000412367] | – | – | – | – | – | – | – | – | – | 112.23 ± 25.44 | 4.43 | 4.43 | 0.32 | 0.50 | 6.2 | – | 1.11 | 1.11 | 5.28 ± 6.57 | > 13000
18 | O=C(CC1C(=O)N(c2ccccc2)C(=O)N1Cc1ccc2c(c1)OCO2)Nc1ccc(Cl)cc1 (stereo not drawn) [SR-01000428566] | 0.07 | 0.07 | 40.80 ± 6.00 | > 11900 | 0.26 | 1.72 | 1.52 | 1.52 | 424 | 84.07 ± 18.43 | – | – | – | – | – | – | – | – | – | –
19 | COc1ccc(NC(=O)NC(O)(O)c2cccc(C(C)=O)c2)cc1 [SR-01000428888] | 0.38 | 0.38 | −2.45 ± 12.32 | > 16400 | 0.38 | 0.88 | 2.10 | 2.10 | 313 | 105.90 ± 33.97 | – | – | – | – | – | – | – | – | – | –
